Measurements taken from patent US20250367100A1, “GINSENOSIDE COMPOSITION, DAILY CHEMICAL AND USE” (INCIPIRIT TECH (GUANGZHOU) CO., LTD., priority 2023, published 2025).
Counter-ions that a name gives are not always drawn.

Tested on: human epidermal keratinocytes
Assay: Proliferation of epidermal keratinocytes in a co-culture system of dermal papilla cells and epidermal keratinocytes
Assay type: cell-based
Settings: 0.2 μg/ml, 2 μg/ml, 20 μg/ml, 200 μg/ml, FIG. 5
Method: Add 500 μl of human epidermal keratinocytes (30,000 cells/ml) to each well of a 24-well MULTIWELL plate, then add a 1.0 μm of cell culture insert, and culture for 1 day. The 1.0 μm of cell culture insert already contains 300 μl of dermal papilla cells (20,000 cells/ml). Subsequently, add 1 μl/well each of the ginseng extracts 1-7, the positive control minoxidil sulfate, and the blank control (DMSO), and continue culturing for 3 days. Remove the 1.0 μm of cell culture insert, add 50 μl/well of Cell Counting Kit-8 (Dojindo Molecular Technologies, Inc.), continue culturing for 2 hours, and determine cell number using a microplate reader (450 nm, Mix 0).

Nc1cc(N2CCCCC2)nc(N)[n+]1OS(=O)(=O)[O-] [minoxidil sulfate]
proliferation of keratinocytes in co-culture system: no effect in promoting the proliferation of keratinocyte
